Measurements taken from patent US4111955A, “N-Trihalomethanesulfenyl carbamoyloximino di-sulfur heterocyclic compounds” (priority 1976, dated 1978).

Assays:
Assay type in all cases: in vivo
[1] = test system: southern armyworm (Prodenia eridania, (Cram.)); assay: Southern Armyworm Leaf Spray Test; parameters: key to pesticidal activity rating, Armyworm: A: excellent control; B: partial control; C: no control; conditions: 500 parts per million, 3 days
Procedure: Larvae of the southern armyworm (Prodenia eridania, (Cram.)), reared on Tendergreen bean plants at a temperature of 80°±5° F. and a relative humidity of 50±5 percent, constituted the test insects.
The test compounds were formulated by diluting the stock suspension with water to give a suspension containing 500 parts of test compound per million parts of final formulation. Potted Tendergreen bean plants of standard height and age were placed on a revolving turntable and sprayed with 100-110 milliliters of test compound formulation by use of a DeVilbiss spray gun set at 10 psig air pressure. This application, which lasted 25 seconds, was sufficient to wet plants to run-off. As a control, 100-110 milliliters of a water-acetone-emulsifier solution containing no test compound were also sprayed on infested plants. When dry, the paired leaves were separated and each one was placed in a 9 centimeter Petri dish lined with moistened filter paper. Five randomly selected larvae were introduced into each dish and the dishes were closed. The closed dishes were labeled and held at 80°-85° F. for 3 days. Although the larvae could easily consume the whole leaf within 24 hours, no more food was added. Larvae which were unable to move the length of the body, even upon stimulation by prodding, were considered dead. Percent mortality was recorded for various concentration levels.
(§1) In these tests the pesticidal activity of the compounds against aphid, mite, Southern Armyworm, Bean Beetle and House fly was rated as follows:
(§2) The LD50 values shown in the above Table II were determined by testing the compositions over an appropriate concentration range obtained by serial dilution of the stock suspension with water. The percent kill was plotted on log-probit graph paper versus parts per million concentration, and the LD50 read from an eye-fitted line drawn through the resultant points.

[2] = test system: Mexican bean beetle (Epilachna varivestis, Muls.); assay: Mexican Bean Beetle Leaf Spray Test; parameters: key to pesticidal activity rating, Bean beetle: A: excellent control; B: partial control; C: no control; conditions: leaf spray, 500 parts per million, 3 days
Procedure: Fourth instar larvae of the Mexican bean beetle (Epilachna varivestis, Muls.), reared on Tendergreen bean plants at a temperature of 80°±5° F. and 50±5 percent relative humidity, were the test insects.
The test compounds were formulated by diluting the stock suspension with water to give a suspension containing 500 parts of test compound per million parts of final formulation. Potted Tendergreen bean plants of standard height and age were placed on a revolving turntable and sprayed with 100-110 milliliters of test compound formulation by use of a DeVilbiss spray gun set at 10 psig air pressure. This application, which lasted 25 seconds, was sufficient to wet plants to run-off. As a control, 100-110 milliliters of a water-acetone-emulsifier solution containing no test compound were also sprayed on infested plants. When dry, the paired leaves were separated and each was placed in a 9 centimeter Petri dish lined with moistened filter paper. Five randomly selected larvae were introduced into each dish, and the dishes were closed. The closed dishes were labeled and held at a temperature of 80°±5° F. for 3 days. Although the larvae could easily consume the leaf within 24 to 48 hours, no more food was added. Larvae which were unable to move the length of the body, even upon stimulation, were considered dead.
as §1, §2

[3] = test system: house flies (Musca domestica, L.); assay: Fly Bait Test; parameters: key to pesticidal activity rating, Housefly: A: excellent control; B: partial control; C: no control; conditions: 500 parts per million, 24 hours
Procedure: Four to 6 day old adult house flies (Musca domestica, L.), reared according to the specifications of the Chemical Specialities Manufacturing Association (Blue Book, McNair-Dorland Co., N.Y. 1954; pages 243-244, 261) under controlled conditions of 80°±5° F. and 50±5 percent relative humidity, were the test insects. The flies were immobilized by anesthetizing with carbon dioxide and twenty five immobilized individuals, males and females, were transferred to a cage consisting of a standard food strainer about 5 inches in diameter which was inverted over a wrapping-paper-covered surface. The test compounds were formulated by diluting the stock suspension with a 10 percent (by weight) sugar solution to give a suspension containing 500 parts of test compound per million parts of final formulation, by weight. Ten milliliters of the test formulation were added to a souffle cup containing a 1-inch square of an absorbent cotton pad. This bait cup was introduced and centered on the blotting paper under the food strainer prior to admitting the anesthetized flies. The caged flies were allowed to feed on the bait for 24 hours, at a temperature of 80°±5° F. and the relative humidity of 50±5 percent.
as §1, §2

[4] = test system: two-spotted mite (Tetranychus urticae Koch); assay: Mite Foliage Spray Test; parameters: key to pesticidal activity rating, Mite: A: excellent control; B: partial control; C: no control; conditions: 500 parts per million, 6 days
Procedure: Adults and nymphal stages of the two-spotted mite (Tetranychus urticae Koch), reared on Tendergreen bean plants at 80±5 percent relative humidity, were the test organisms. Infested leaves from a stock culture were placed on the primary leaves of two bean plants 6 to 8 inches in height, growing in a 21/2 inch clay pot. 150-200 Mites, a sufficient number for testing, transferred from the excised leaves to the fresh plants in a period of 24 hours. Following the 24 hour transfer period, the excised leaves were removed from the infested plants. The test compounds were formulated by diluting the stock suspension with water to give a suspension containing 500 parts of test compound per million parts of final formulation. The potted plants (one pot per compound) were placed on a revolving turntable and sprayed with 100-110 milliliters of test compound formulation by use of a DeVilbiss spray gun set at 40 psig. air pressure. This application, which lasted 25 seconds, was sufficient to wet the plants to run-off. As a control, 100-110 milliliters of a water solution containing acetone and emulsifier in the same concentrations as the test compound formulation, but containing no test compound, were also sprayed on infested plants. The sprayed plants were held at 80±5 percent relative humidity for 6 days, after which a mortality count of motile forms was made. Microscopic examination for motile forms was made on the leaves of the test plants. Any individual which was capable of locomotion upon prodding was considered living.
as §1, §2

[5] = test system: bean aphid (Aphis fabae Scop.); assay: Bean Aphid Foliage Spray Test; parameters: key to pesticidal activity rating, Aphid: A: excellent control; B: partial control; C: no control; conditions: 500 parts per million, 24 hour
Procedure: Adults and nymphal stages of the bean aphid (Aphis fabae Scop.) reared on potted dwarf nasturtium plants at 65°-70° F. and 50-70 percent relative humidity, constituted the test insects. For testing purposes, the number of aphids per pot was standardized to 100-150 by trimming plants containing excess aphids.
The test compounds were formulated by diluting the stock suspension with water to give a suspension containing 500 parts of test compound per million parts of final formulation.
The potted plants (one pot per compound tested) infested with 100-150 aphids, were placed on a revolving turntable and sprayed with 100-110 milliliters of test compound formulation by use of a DeVilbiss spray gun set at 40 psig. air pressure. This application, which lasted 25 seconds, was sufficient to wet the plants to run-off. As a control, 100-110 milliliters of a water-acetone-emulsifier solution containing no test compound were also sprayed on infested plants. After spraying, the pots were placed on their sides on a sheet of white standard mimeograph paper which had been previously ruled to facilitate counting. Temperature and humidity in the test room during the 24 hour holding period were 65°-70° F. and 50-70 percent, respectively. Aphids which fell onto the paper and were unable to remain standing after being uprighted were considered dead. Aphids remaining on the plants were observed closely for movement and those which were unable to move the length of the body upon stimulation by prodding were considered dead. Percent mortality was recorded for various concentration levels.
as §1, §2

[6] = Peroral toxicity to mammals (rat); conditions: in vivo, po; rat, peroral, Table I; read-out: Rat P.O. LD50
Procedure: Certain of these compositions were also evaluated to determine their peroral toxicity to mammals. The animal selected for this experiment was the rat. The test results obtained are expressed in terms of the number of milligrams of composition per kilogram of weight of the animal required to achieve a mortality rate of 50 percent (LD50).

Row | Compound | pesticidal activity rating, Armyworm [1] | pesticidal activity rating, Bean beetle [2] | pesticidal activity rating, Housefly [3] | pesticidal activity rating, Mite [4] | pesticidal activity rating, Aphid [5] | LD50 [6] [mg/kg]
1 | CN(SC(Cl)(Cl)Cl)C(=O)ON=C1CSC(C)(C)S1 | C | A | A | A | A | –
2 | CN(SC(Cl)(Cl)Cl)C(=O)ON=C1SCCSC1(C)C | A | A | B | A | A | 7.07
3 | CCCC1SCCSC1=NOC(=O)N(C)SC(Cl)(Cl)Cl (centres unmarked) | C | A | A | C | B | –
4 | CC1SCCSC1=NOC(=O)N(C)SC(Cl)(Cl)Cl (centres unmarked) | A | A | A | A | A | –
5 | CN(SC(Cl)(Cl)Cl)C(=O)ON=C1C[S+]([O-])CCS1 (centres unmarked) [2-O-[(N-METHYL-N-TRICHLOROMETHANESULFENYL) CARBAMOYLOXIMINO]-1,4-DITHIANE-4-OXIDE] | A | A | A | A | A | 28.3
6 | CN(SC(F)(F)F)C(=O)ON=C1CSCCS1 [2-O-[(N-METHYL-N-TRIFLUOROMETHANESULFENYL)-CARBAMOYLOXIMINO]-1,4-DITHIANE] | A | A | A | A | A | –
7 | CN(SC(Cl)(Cl)Cl)C(=O)ON=C1CSCS1 [4-[(N-METHYL-N-TRICHLOROMETHANESULFENYL)-CARBAMOYLOXIMINO]-1,3-DITHIOLANE] | A | A | A | A | A | 75
8 | CNC(=O)ON=C1CSCS1 [drawing 5 --NHCH3, reference compound] | A | A | A | A | A | 13
9 | CNC(=O)ON=C1CSC(C)(C)S1 [drawing 6 --NHCH3, reference compound] | B | A | A | A | A | –
10 | CNC(=O)ON=C1SCCSC1(C)C [drawing 7 --NHCH3, reference compound] | A | A | A | A | A | 0.3
11 | CCCC1SCCSC1=NOC(=O)NC (centres unmarked) [drawing 9 --NHCH3, reference compound] | C | A | A | C | A | –
12 | CNC(=O)ON=C1C[S+]([O-])CCS1 (centres unmarked) [drawing 10 --NHCH3, reference compound] | A | A | A | A | C | 12.3
13 | CNC(=O)ON=C1SCCSC1C (centres unmarked) [drawing 11 --NHCH3, reference compound] | A | A | A | A | A | –
